US6429208B1, “Methods and compositions for restoring impaired cellular immune function” (Regents of the University of California, priority 1992, dated 2002)

System: PBMC from HIV seropositive donors
Experiment: Immunoglobulin / anti-HIV antibody production by PBMC from HIV seropositive donors
Format: cell-based, human
Conditions: 10 days
Protocol: Immunoglobulin production by B-cells is regulated by T-cells; CD4 provides “help” for de novo synthesis and CD8 suppresses immunoglobulin production. In HIV infection, increased total immunoglobulin production with a decrease in certain specific HIV antibodies to HIV GAG proteins during infection is a common finding (Lange, et al. AIDS (1987) 1:155-9). In this experiment, 10^6 PBMC from HIV seropositive donors were incubated in 1 ml cultures with and without ddAdo (1-100 ng/ml) for 10 days. IgG and anti-HIV antibodies in supernatant were measured by ELISA. p24 binding capacity was measured with a kit from DuPont following the manufacturer's protocol. Addition of ddAdo to cultures of PBMC from HIV seropositive subjects restored production of specific antibodies to p24 (Table 3). An effect of ddAdo on T-cells has been shown above but a possible direct effect on B-cells cannot be ruled out.
Addition of ddAdo to cultures of PBMC from HIV seropositive subjects increased spontaneous anti-p24 antibodies in individuals with none/low spontaneous production (p24 is an HIV core protein). One million PBMC from HIV seropositive donors were incubated in 1 ml cultures with and without ddAdo (1-100 ng/ml) for 10 days. IgG10 and production of anti-HIV antibodies to p24 in supernatants were measured by ELISA. p24 binding capacity was measured with a kit from DuPont (Delaware) following the manufacturer's protocol.

C[C@H]1O[C@@H](n2cnc3c(N)ncnc32)C[C@@H]1O [ddAdo, 2′,5′ dideoxyadenosine]
p24 Binding Capacity (Patient 1, none 0): 14 pg/mL | IgG (Patient 1, none 326): 367 µg/mL | Anti-HIV Ab (Patient 1, none .5910): .5300 OD | p24 Binding Capacity (Patient 2, none 0): 16 pg/mL | IgG (Patient 2, none 98): 89 µg/mL | Anti-HIV Ab (Patient 2, none .1320): .1940 OD | p24 Binding Capacity (Patient 3, none 0): 88 pg/mL | Anti-HIV Ab (Patient 3, none 1.1390): 1.0820 OD | IgG (Patient 3, none 366): 309 µg/mL | p24 Binding Capacity (Patient 4, none 25): 49 pg/mL | IgG (Patient 4, none 123): 142 µg/mL | Anti-HIV Ab (Patient 4, none .2000): .1640 OD | p24 Binding Capacity (Patient 5, none 41): 32 pg/mL | IgG (Patient 5, none 55): 192 µg/mL | Anti-HIV Ab (Patient 5, none .1480): .1360 OD | p24 Binding Capacity (Patient 6, none 60): 50 pg/mL | IgG (Patient 6, none 76): 80 µg/mL | Anti-HIV Ab (Patient 6, none .0330): .0330 OD | IgG (Patient 7, none 244): 145 µg/mL | p24 Binding Capacity (Patient 7, none 376): 418 pg/mL | Anti-HIV Ab (Patient 7, none .0570): .2990 OD | IgG (Patient 8, none 143): 170 µg/mL | p24 Binding Capacity (Patient 8, none 1540): 1560 pg/mL | Anti-HIV Ab (Patient 8, none .4860): .3900 OD
